{"source": "ChEMBL document CHEMBL1134197", "about": "“A series of quinoline analogues as potent inhibitors of C. albicans prolyl tRNA synthetase” (Bioorg Med Chem Lett, 2001)", "key": {"[1]": {"target": "Bifunctional glutamate/proline--tRNA ligase (Homo sapiens, UniProt P07814)", "sequence (P07814 whole entry)": "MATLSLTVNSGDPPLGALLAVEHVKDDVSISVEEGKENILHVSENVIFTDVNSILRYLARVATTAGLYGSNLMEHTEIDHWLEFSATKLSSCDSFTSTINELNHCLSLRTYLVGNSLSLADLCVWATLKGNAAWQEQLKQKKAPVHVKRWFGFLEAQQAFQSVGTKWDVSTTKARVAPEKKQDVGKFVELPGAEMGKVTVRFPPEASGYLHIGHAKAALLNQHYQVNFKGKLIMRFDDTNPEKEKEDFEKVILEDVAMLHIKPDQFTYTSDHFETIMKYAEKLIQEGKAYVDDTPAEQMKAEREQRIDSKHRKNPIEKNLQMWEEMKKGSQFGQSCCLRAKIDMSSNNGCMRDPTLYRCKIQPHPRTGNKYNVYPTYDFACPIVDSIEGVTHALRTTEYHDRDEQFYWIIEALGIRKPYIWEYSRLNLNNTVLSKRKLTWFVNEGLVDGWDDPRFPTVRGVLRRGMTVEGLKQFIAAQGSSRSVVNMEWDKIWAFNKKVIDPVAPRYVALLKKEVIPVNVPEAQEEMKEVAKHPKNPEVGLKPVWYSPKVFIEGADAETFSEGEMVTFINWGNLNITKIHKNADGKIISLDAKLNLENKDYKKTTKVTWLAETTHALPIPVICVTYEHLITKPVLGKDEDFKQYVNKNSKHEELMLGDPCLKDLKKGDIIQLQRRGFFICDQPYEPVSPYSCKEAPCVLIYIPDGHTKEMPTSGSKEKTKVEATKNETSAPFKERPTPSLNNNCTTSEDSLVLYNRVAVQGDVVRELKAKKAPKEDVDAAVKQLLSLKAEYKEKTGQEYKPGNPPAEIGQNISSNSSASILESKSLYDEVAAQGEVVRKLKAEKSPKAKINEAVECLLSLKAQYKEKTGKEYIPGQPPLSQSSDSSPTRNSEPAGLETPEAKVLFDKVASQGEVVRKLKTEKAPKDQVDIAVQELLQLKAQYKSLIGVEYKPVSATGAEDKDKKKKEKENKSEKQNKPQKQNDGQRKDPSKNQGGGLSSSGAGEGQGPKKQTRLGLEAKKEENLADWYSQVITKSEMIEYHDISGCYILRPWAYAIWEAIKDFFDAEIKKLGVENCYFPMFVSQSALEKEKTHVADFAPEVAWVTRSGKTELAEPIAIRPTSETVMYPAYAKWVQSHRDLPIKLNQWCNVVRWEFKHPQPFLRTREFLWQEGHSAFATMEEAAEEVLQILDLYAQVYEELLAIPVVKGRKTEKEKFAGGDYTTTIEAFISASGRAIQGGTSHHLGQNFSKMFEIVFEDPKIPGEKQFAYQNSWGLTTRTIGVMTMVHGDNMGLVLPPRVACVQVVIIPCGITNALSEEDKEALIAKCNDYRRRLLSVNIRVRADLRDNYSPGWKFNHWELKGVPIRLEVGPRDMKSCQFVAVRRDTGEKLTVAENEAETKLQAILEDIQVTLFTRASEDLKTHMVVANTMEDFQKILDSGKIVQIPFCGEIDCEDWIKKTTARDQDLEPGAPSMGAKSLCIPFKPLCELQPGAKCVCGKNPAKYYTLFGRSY", "test": "Aminoacylation activity against human prolyl-tRNA synthetase"}, "[2]": {"target": "T1, Proline--tRNA ligase, cytoplasmic (Candida albicans, UniProt P78600)", "T1 sequence (P78600 whole entry)": "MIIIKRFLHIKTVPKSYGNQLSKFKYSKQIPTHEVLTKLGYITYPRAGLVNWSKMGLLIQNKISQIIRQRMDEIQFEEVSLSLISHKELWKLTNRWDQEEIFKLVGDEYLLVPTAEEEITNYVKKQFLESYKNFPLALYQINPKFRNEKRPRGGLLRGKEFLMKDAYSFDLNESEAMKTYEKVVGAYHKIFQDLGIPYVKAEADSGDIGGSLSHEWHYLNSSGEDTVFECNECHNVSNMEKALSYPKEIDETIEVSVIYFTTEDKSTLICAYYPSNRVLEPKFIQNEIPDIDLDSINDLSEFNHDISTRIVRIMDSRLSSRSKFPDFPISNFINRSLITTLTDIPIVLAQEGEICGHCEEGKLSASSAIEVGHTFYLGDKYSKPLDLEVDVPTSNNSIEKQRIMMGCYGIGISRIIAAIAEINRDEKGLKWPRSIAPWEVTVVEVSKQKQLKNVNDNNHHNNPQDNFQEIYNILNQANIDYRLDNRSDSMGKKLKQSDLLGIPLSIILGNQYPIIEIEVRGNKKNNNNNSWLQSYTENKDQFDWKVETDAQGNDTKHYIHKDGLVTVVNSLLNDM", "test": "Aminoacylation activity against Candida albicans prolyl-tRNA synthetase"}, "[3]": {"test": "Minimum inhibitory concentration (MIC) against Candida albicans (has cellular activity)", "type": "functional"}, "Candida albicans": {"system": "Candida albicans", "test": "Compound was evaluated for the minimum inhibitory concentration (MIC) against Candida albicans (no cell activity)", "type": "functional"}, "[4]": {"test": "Competitive inhibition against Candida albicans prolyl-tRNA synthetase (Ca. ProRS) with respect to ATP"}, "[5]": {"test": "Non-competitive inhibition against Candida albicans prolyl-tRNA synthetase (Ca. ProRS) with respect to proline"}}, "note": "pIC50, pKi: −log10 of the molar value.", "data": [{"smiles": "COc1ccc(-c2cc(C(=O)O)c3ccccc3n2)cc1", "values": [{"measurement": "pIC50", "setting": "[1]", "result": "< 4.00"}, {"measurement": "pIC50", "setting": "[2]", "result": "< 4.00"}]}, {"smiles": "O=C(O)c1cc(-c2ccc(Br)cc2)nc2c(C(F)(F)F)cc(Br)cc12", "values": [{"measurement": "pIC50", "setting": "[1]", "result": 4.25}, {"measurement": "pIC50", "setting": "[2]", "result": 6.66}]}, {"smiles": "O=C(O)c1cc(-c2ccc(Cl)c(Cl)c2)nc2ccccc12", "values": [{"measurement": "pIC50", "setting": "[1]", "result": "< 4.00"}, {"measurement": "pIC50", "setting": "[2]", "result": 4.72}]}, {"smiles": "Cc1cc(Cl)cc2c(C(=O)OCc3ccco3)cc(-c3ccc(Br)cc3)nc12", "values": [{"measurement": "pIC50", "setting": "[1]", "result": "< 4.00"}, {"measurement": "pIC50", "setting": "[2]", "result": 7.15}]}, {"smiles": "Cc1cc(Cl)cc2c(COS(N)(=O)=O)cc(-c3ccc(Br)cc3)nc12", "values": [{"measurement": "pIC50", "setting": "[2]", "result": 5.62}]}, {"smiles": "O=C(O)/C=C/c1ccc2nc(-c3ccc(Br)cc3)cc(C(=O)O)c2c1", "values": [{"measurement": "pIC50", "setting": "[1]", "result": 4.10}, {"measurement": "pIC50", "setting": "[2]", "result": 5.89}]}, {"smiles": "O=C(O)c1cc(-c2ccc(Br)cc2)nc2c(CO)cc(Cl)cc12", "values": [{"measurement": "pIC50", "setting": "[1]", "result": "< 4.00"}, {"measurement": "pIC50", "setting": "[2]", "result": 5.82}]}, {"smiles": "Cc1cc(Cl)c2nc(-c3ccc(Br)cc3)cc(C(=O)O)c2c1", "values": [{"measurement": "pIC50", "setting": "[1]", "result": "< 4.70"}, {"measurement": "pIC50", "setting": "[2]", "result": 7.60}]}, {"smiles": "O=C(O)c1cc(-c2ccc(Br)cc2)nc2ccc(-c3ccc(O)cc3)cc12", "values": [{"measurement": "pIC50", "setting": "[1]", "result": 4.46}, {"measurement": "pIC50", "setting": "[2]", "result": 6.46}]}, {"smiles": "O=C(O)c1cc(-c2ccco2)nc2ccccc12", "values": [{"measurement": "pIC50", "setting": "[1]", "result": "< 4.00"}, {"measurement": "pIC50", "setting": "[2]", "result": "< 4.00"}]}, {"smiles": "Cc1cc(C)c2nc(-c3ccc(Br)cc3)cc(C(=O)O)c2c1", "values": [{"measurement": "pIC50", "setting": "[1]", "result": "< 4.00"}, {"measurement": "pIC50", "setting": "[2]", "result": 4.60}]}, {"smiles": "Cc1cc(Cl)cc2c(-c3nn[nH]n3)cc(-c3ccc(Br)cc3)nc12", "values": [{"measurement": "pIC50", "setting": "[1]", "result": "< 4.00"}, {"measurement": "pIC50", "setting": "[2]", "result": 7.52}]}, {"smiles": "Cc1cc(Cl)cc2nc(-c3ccc(Br)cc3)cc(C(=O)O)c12", "values": [{"measurement": "pIC50", "setting": "[1]", "result": "< 4.00"}, {"measurement": "pIC50", "setting": "[2]", "result": 5.82}]}, {"smiles": "O=C(O)c1cc(-c2ccc(C(F)(F)F)cc2)nc2ccccc12", "values": [{"measurement": "pIC50", "setting": "[1]", "result": "< 4.00"}, {"measurement": "pIC50", "setting": "[2]", "result": "< 4.00"}]}, {"smiles": "O=C(O)c1cc(-c2ccc(Br)cc2)nc2ccc(S(=O)(=O)O)cc12", "values": [{"measurement": "pIC50", "setting": "[1]", "result": "< 4.00"}, {"measurement": "pIC50", "setting": "[2]", "result": 4.82}]}, {"smiles": "O=C(O)c1cc(-c2ccc(Cl)s2)nc2ccccc12", "values": [{"measurement": "pIC50", "setting": "[1]", "result": "< 4.00"}, {"measurement": "pIC50", "setting": "[2]", "result": 4.49}]}, {"smiles": "O=C(O)c1cc(-c2ccc(Br)cc2)nc2ccc(Cl)cc12", "values": [{"measurement": "pIC50", "setting": "[1]", "result": "< 4.70"}, {"measurement": "pIC50", "setting": "[2]", "result": 7.59}]}, {"smiles": "O=C(O)c1cc(-c2ccc(Br)cc2)nc2ccc(OC(F)(F)F)cc12", "values": [{"measurement": "pIC50", "setting": "[1]", "result": "< 4.00"}, {"measurement": "pIC50", "setting": "[2]", "result": 7.28}]}, {"smiles": "O=C(O)c1cc(-c2ccc(Br)cc2)nc2ccc(Br)cc12", "values": [{"measurement": "pIC50", "setting": "[1]", "result": "< 4.70"}, {"measurement": "pIC50", "setting": "[2]", "result": 7.60}]}, {"smiles": "Cc1cc(Cl)cc2c(C(=O)OCc3ccc(-c4ccccc4)cc3)cc(-c3ccc(Br)cc3)nc12", "values": [{"measurement": "pIC50", "setting": "[1]", "result": "< 4.00"}, {"measurement": "pIC50", "setting": "[2]", "result": 5.06}]}, {"smiles": "O=C(O)c1cc(-c2ccc3ccccc3c2)nc2ccccc12", "values": [{"measurement": "pIC50", "setting": "[1]", "result": "< 4.00"}, {"measurement": "pIC50", "setting": "[2]", "result": 5.44}]}, {"smiles": "Cc1cc(Cl)cc2c(C(=O)OCc3ccc(Cl)c(Cl)c3)cc(-c3ccc(Br)cc3)nc12", "values": [{"measurement": "pIC50", "setting": "[1]", "result": "< 4.00"}, {"measurement": "pIC50", "setting": "[2]", "result": 7.70}]}, {"smiles": "Cc1c(F)ccc2c(C(=O)O)cc(-c3ccc(Br)cc3)nc12", "values": [{"measurement": "pIC50", "setting": "[1]", "result": 4.22}, {"measurement": "pIC50", "setting": "[2]", "result": 6.92}]}, {"smiles": "Cc1c(Br)ccc2c(C(=O)O)cc(-c3ccc(Br)cc3)nc12", "values": [{"measurement": "pIC50", "setting": "[1]", "result": 4.15}, {"measurement": "pIC50", "setting": "[2]", "result": 6.82}, {"measurement": "MIC", "setting": "[3]", "result": 25, "unit": "µg/mL"}]}, {"smiles": "Nc1ccc2nc(-c3ccc(Br)cc3)cc(C(=O)O)c2c1", "values": [{"measurement": "pIC50", "setting": "[1]", "result": 4.02}, {"measurement": "pIC50", "setting": "[2]", "result": 5.48}]}, {"smiles": "Cc1cc(Cl)cc2c(C(=O)O)cc(-c3ccc(Br)cc3)nc12", "values": [{"measurement": "pIC50", "setting": "[1]", "result": "< 4.70"}, {"measurement": "pIC50", "setting": "[2]", "result": 8.30}, {"measurement": "MIC", "setting": "Candida albicans", "result": "> 100", "unit": "µg/mL"}, {"measurement": "pKi", "setting": "[4]", "result": 8.29}, {"measurement": "pKi", "setting": "[5]", "result": 7.82}]}, {"smiles": "O=C(O)c1cc(-c2ccc(Br)cc2)nc2ccc(I)cc12", "values": [{"measurement": "pIC50", "setting": "[1]", "result": "< 4.00"}, {"measurement": "pIC50", "setting": "[2]", "result": 7.72}]}, {"smiles": "O=C(O)c1cc(-c2ccc(Br)cc2)nc2cc(Cl)cc(Cl)c12", "values": [{"measurement": "pIC50", "setting": "[1]", "result": "< 4.00"}, {"measurement": "pIC50", "setting": "[2]", "result": 6.85}]}, {"smiles": "O=C(O)c1cc(-c2ccncc2)nc2ccccc12", "values": [{"measurement": "pIC50", "setting": "[1]", "result": "< 4.00"}, {"measurement": "pIC50", "setting": "[2]", "result": "< 4.00"}]}, {"smiles": "COC(=O)C(Cc1ccccc1)NC(=O)c1cc(-c2ccc(Br)cc2)nc2c(C)cc(Cl)cc12", "note": "(configuration not stated)", "values": [{"measurement": "pIC50", "setting": "[1]", "result": "< 4.00"}, {"measurement": "pIC50", "setting": "[2]", "result": 5.24}]}, {"smiles": "O=C(O)c1cc(-c2ccc(Br)cc2)nc2ccccc12", "values": [{"measurement": "pIC50", "setting": "[1]", "result": "< 4.00"}, {"measurement": "pIC50", "setting": "[2]", "result": 6.30}]}, {"smiles": "O=C(O)c1cc(-c2ccccc2)nc2ccccc12", "note": "[CINCHOPHEN]", "values": [{"measurement": "pIC50", "setting": "[1]", "result": "< 4.00"}, {"measurement": "pIC50", "setting": "[2]", "result": "< 4.00"}]}]}
